Inhibition data for nine molecules are collected here from patent US12202829B2, “Heterocyclic compound” (FIMECS, Inc., priority 2018, dated 2025).

Structures are written as SMILES. Counter-ions that a name gives are not always drawn.

The assay deals with T1, human XIAP_BIR3 domain purified protein (Homo sapiens, UniProt P98170).
T1 construct: purchased R & D
The assay can be described thus: XIAP binding inhibitory activity, HTRF method with b-Smac ligand. The settings on record: test compound 3 μM; first symbol of the cell; read-out: XIAP binding inhibition rate when the concentration of the test compound is 3 μM. The protocol:
Human XIAP binding inhibitory activity were measured by the Homogeneous Time Resolved Fluorescence (HTRF) method with using commercially available human XIAP_BIR3 domain purified protein (R & D) and as a ligand a Smac N-terminal peptide (AVPIAQK (SEQ ID NO: 1)) (hereinafter referred to as “b-Smac”; Peptide Research Laboratories, Inc.) biotinylated at the C-terminus according to a conventional method.
The HTRF method will be described in detail below. A test compound diluted with a reaction buffer was added to a 384-well white shallow bottom plate (Greiner 784076) at 1 μL/well and flash centrifuged for 30 seconds. Subsequently, human XIAP_BIR3 domain purified protein was diluted with the reaction buffer (25 mM HEPES Buffer containing 100 mM NaCl, 0.1% BSA, and 0.1% triton X-100, pH 7.5) to obtain a 90 nM sample diluent, and the resultant sample diluent was added to the above-mentioned white superficial plate at 4.5 μL/well and flash centrifuged for 30 seconds. Subsequently, b-Smac diluted to 90 nM with the reaction buffer was added to the above-mentioned white superficial plat at 4.5 μL/well and flash centrifuged for 30 seconds. A mixed solution of Anti-6 HIS-Cryptate (Eu3+Cryptate-conjugated mouse monoclonal antibody anti-6 Histidine; cisbio) and Streptavidin-XL^ent! (Highgrade XL665-conjugated streptavidin; cisbio) both diluted 100-fold with HTRF detection buffer (cisbio) at a volume ratio of 1:1 was added to the above white superficial plate at 10 μL/well. After flash centrifuging the white shallow bottom plate for 30 seconds, the white shallow bottom plate was left at room temperature for 4 hours or more in the dark. The white superficial plate after being left was subjected to fluorescence intensity measurement (excitation wavelength: 320 nm, fluorescence wavelength: 665 nm and 615 nm) by EnVision (Perkin Elmer).
The binding inhibition rate (%) was calculated based on the HTRF ratio in the presence of the test compound to the HTRF ratio in the absence of the test compound (fluorescence intensity at 665 nm/fluorescence intensity at 615 nm).

T1 sequence (P98170 252-356 limits assumed): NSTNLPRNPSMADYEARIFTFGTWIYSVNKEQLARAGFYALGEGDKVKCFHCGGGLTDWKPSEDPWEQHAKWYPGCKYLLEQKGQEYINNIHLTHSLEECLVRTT

As for `CN[C@@H](C)C(=O)N[C@H](C(=O)N1CCN(C(=O)c2cc3ccc(OC)cc3n2C)C[C@H]1C)C1CCCCC1` [Example 24, (S)—N—((S)-1-cyclohexyl-2-((R)-4-(6-methoxy-1-methyl-1H-indole-2-carbonyl)-2-methylpiperazin-1-yl)-2-oxoethyl)-2-(methylamino)propanamide Hydrochloride], the inhibition at 3 µM is > 75%. With `CN[C@@H](C)C(=O)N[C@H](C(=O)N1CCN(C(=O)c2c(C(=O)NCCOC)c3ccc(OC)cc3n2C)CC1)C1CCCCC1` [Example 25, 2-(4-((S)-2-Cyclohexyl-2-((S)-2-(methylamino)propanamido)acetyl)piperazine-1-carbonyl)-6-methoxy-N-(2-methoxyethyl)-1-methyl-1H-indole-3-carboxamide Hydrochloride], the inhibition at 3 µM is > 75%. Regarding `CN[C@@H](C)C(=O)N[C@H](C(=O)N1CCN(C(=O)c2c(C(=O)N(C)CCOC)c3ccc(OC)cc3n2C)CC1)C1CCCCC1` [Example 26, 2-(4-((S)-2-Cyclohexyl-2-((S)-2-(methylamino)propanamido)acetyl)piperazine-1-carbonyl)-6-methoxy-N-(2-methoxyethyl)-N,1-dimethyl-1H-indole-3-carboxamide Hydrochloride], the inhibition at 3 µM fell in the range of 50 to 75%. In the case of `CN[C@@H](C)C(=O)N[C@H](C(=O)N1CCN(C(=O)c2c(C(=O)NCC(=O)OC)c3ccc(OC)cc3n2C)CC1)C1CCCCC1` [Example 27, Methyl (2-(4-((S)-2-cyclohexyl-2-((S)-2-(methylamino)propanamido)acetyl)piperazine-1-carbonyl)-6-methoxy-1-methyl-1H-indole-3-carbonyl)glycinate Hydrochloride], the inhibition at 3 µM is > 75%.

For `CN[C@@H](C)C(=O)N[C@H](C(=O)N1CCN(C(=O)c2c(C(=O)N(C)CC(=O)OC)c3ccc(OC)cc3n2C)CC1)C1CCCCC1` [Example 28, Methyl N-(2-(4-((S)-2-cyclohexyl-2-((S)-2-(methylamino)propanamido)acetyl)piperazine-1-carbonyl)-6-methoxy-1-methyl-1H-indole-3-carbonyl)-N-methylglycinate Hydrochloride], the inhibition at 3 µM was 50 to 75%. With `CN[C@@H](C)C(=O)N[C@H](C(=O)N1CCN(C(=O)c2c(C(=O)N3CCC[C@H]3COC)c3ccc(OC)cc3n2C)CC1)C1CCCCC1` [Example 29, (S)—N—((S)-1-Cyclohexyl-2-(4-(6-methoxy-3-((S)-2-(methoxymethyl)pyrrolidine-1-carbonyl)-1-methyl-1H-indole-2-carbonyl)piperazin-1-yl)-2-oxoethyl)-2-(methylamino)propanamide Hydrochloride], the inhibition at 3 µM lay within 50 to 75%. Turning to `CN[C@@H](C)C(=O)N[C@H](C(=O)N1CCN(C(=O)c2c(C(=O)N3CCC[C@@H]3COC)c3ccc(OC)cc3n2C)CC1)C1CCCCC1` [Example 30, (S)—N—((S)-1-Cyclohexyl-2-(4-(6-methoxy-3-((R)-2-(methoxymethyl)pyrrolidine-1-carbonyl)-1-methyl-1H-indole-2-carbonyl)piperazin-1-yl)-2-oxoethyl)-2-(methylamino)propanamide Hydrochloride], the inhibition at 3 µM lay within 50 to 75%. Regarding `CN[C@@H](C)C(=O)N[C@H](C(=O)N1CCN(C(=O)c2c(C(=O)N3CC(OC)C3)c3ccc(OC)cc3n2C)CC1)C1CCCCC1` [Example 31, (S)—N—((S)-1-Cyclohexyl-2-(4-(6-methoxy-3-(3-methoxyazetidine-1-carbonyl)-1-methyl-1H-indole-2-carbonyl)piperazin-1-yl)-2-oxoethyl)-2-(methylamino)propanamide Hydrochloride], the inhibition at 3 µM fell in the range of 50 to 75%.

For `CN[C@@H](C)C(=O)N[C@H](C(=O)N1CCN(C(=O)c2cc3ccc(OC)cc3n2C)C[C@@H]1C)C1CCCCC1` [Example 32, (S)—N—((S)-1-Cyclohexyl-2-((S)-4-(6-methoxy-1-methyl-1H-indole-2-carbonyl)-2-methylpiperazin-1-yl)-2-oxoethyl)-2-(methylamino)propanamide Hydrochloride], the inhibition at 3 µM fell in the range of 50 to 75%.
